6 compounds from publication PMC11915372, “Identification of a Series Containing a Pentafluorophenyl Moiety That Targets Pks13 to Inhibit Growth of Mycobacterium tuberculosis” (ACS Infectious Diseases, 2025) can be followed below.

One data set has as its system M. tuberculosis (H37Rv). The data set can be described thus: microbe, parasite or virus in culture. It is filed as cell-based, Mycobacterium tuberculosis. The settings on record: Mycobacterium tuberculosis, H37RV.
A short description of data set [1]: physchem. It is filed as physicochemical.
Data set [2] is classed as in vitro ADME, mouse.
The format of data set [3] is in vitro ADME, mouse. This is another data set of the same source.
The nature of data set [4]: physchem. The settings on record: pH 7.4.
Another data set deals with HepG2 cells. The data set can be described thus: HepG2 cytotoxicity. The settings on record: Homo sapiens.
Setting [5] is: read-out: Wk2_7H9/DPPC/ casitone/ Tyloxapol MIC.
Setting [6] is: read-out: Wk2_ 7H9/DPPC/ cholesterol/BSA/ Tyloxapol MIC.
The mark [7] stands for this setting: read-out: Wk2_7H9/glucose/ BSA/Tyloxapol MIC.
The mark [8] stands for this setting: read-out: Wk2_7H9/glucose/ casitone/ Tyloxapol MIC.
Setting [9] is: pH 7.4, aqueous buffer, kinetic from dmso stock.
Where [10] appears, read: HepG2, read-out: HepG2 inhibitory concentration (IC50).

In brackets after ≈: the same amount, converted by molar mass. Where two headings read alike, the source gives them in different places. Some results are limits rather than exact numbers.

Text for HepG2 cells: Assays to establish HepG2 cytotoxicity, in vitro microsomal/hepatocyte metabolic stability, aqueous kinetic solubility, and in vivo pharmacokinetic profiles were all performed as previously described.[15],[35]−[37]

On to `CCOC(=O)c1nc(C)oc1NC(=O)c1c(F)c(F)cc(F)c1F` [Compound 28, CCOC(=O)c1nc(oc1NC(=O)c1c(c(cc(c1F)F)F)F)C], for which the MIC in the data set with M. tuberculosis (H37Rv) (read-out: H37Rv MIC A), in the data set on M. tuberculosis (H37Rv) (read-out: H37Rv MIC B), in the data set on M. tuberculosis (H37Rv) (setting [5]), in the data set with M. tuberculosis (H37Rv) (setting [6]), in the data set on M. tuberculosis (H37Rv) (setting [7]) and in the data set on M. tuberculosis (H37Rv) (setting [8]) was greater than 50 µM throughout. Besides, the solubility kinetic turned out to be 163 µM (≈ 56.4 µg/mL) in “physchem [1]” (kinetic solubility in water, read-out: Kin. Sol) and 163 µM (≈ 56.4 µg/mL) in “physchem [1]” (pH 7.4, aqueous buffer, kinetic from dmso stock, pH7.4, read-out: Kinetic Solubility pH7.4). Also, the “Mouse micro Cl” value in data set [2] (intrinsic clearance (Cli), CD1 mouse liver microsomes, Tables 1-4) is less than 0.5 mLmin/g. Besides, the “Microsomal Cli” value in data set [2] (supplement data table) is given as less than 0.5 mL/min/g. Moreover, in data set [3] (intrinsic clearance (Cli), mouse hepatocytes, Tables 1-4), the “Mouse Heps Cl” value stood at 0.88 mLmin/g. In data set [3] (supplement data table), the “Hepatocyte Cli” value came out at 0.9 mL/min/g. Moreover, in the data set “physchem [4]”, the chromatographic logD amounted to 1.7. Moreover, the IC50 in the data set on HepG2 cells (HepG2, read-out: Hs-HEPG IC50) is greater than 100 µM.
In the case of `CCOC(=O)c1nc(C)oc1NCc1c(F)c(F)c(F)c(F)c1F` [Compound 29, CCOC(=O)c1nc(oc1NCc1c(c(c(c(c1F)F)F)F)F)C], the MIC in the data set with M. tuberculosis (H37Rv) (read-out: H37Rv MIC A), in the data set on M. tuberculosis (H37Rv) (read-out: H37Rv MIC B), with M. tuberculosis (H37Rv) (setting [5]), in the data set with M. tuberculosis (H37Rv) (setting [6]), in the data set with M. tuberculosis (H37Rv) (setting [7]) and in the data set with M. tuberculosis (H37Rv) (setting [8]) was greater than 50 µM in each case. For the same compound, the solubility kinetic in “physchem [1]” (setting [9]) and in “physchem [1]” (read-out: Kin. Sol) was 23 µM (≈ 8.06 µg/mL) each time. The “Microsomal Cli” value in data set [2] (CD1, mouse) is 32 mL/min/g. The “Mouse micro Cl” value in data set [2] (mouse, microsomes) is reported as 32 mLmin/g. Moreover, the “Hepatocyte Cli” value in data set [3] (mouse) is recorded as greater than 50 mL/min/g. Moreover, the “Mouse Heps Cl” value in data set [3] (mouse, hepatocytes) is greater than 50 mLmin/g. In “physchem [4]”, this compound returned a chromatographic logD of 3.2. In addition, the IC50 in the data set with HepG2 cells (setting [10]) is greater than 100 µM.
With `CCOC(=O)c1nc(C)oc1NS(=O)(=O)c1c(F)c(F)c(F)c(F)c1F` [Compound 30, CCOC(=O)c1nc(oc1NS(=O)(=O)c1c(c(c(c(c1F)F)F)F)F)C], the MIC with M. tuberculosis (H37Rv) (read-out: H37Rv MIC A), in the data set with M. tuberculosis (H37Rv) (read-out: H37Rv MIC B), in the data set with M. tuberculosis (H37Rv) (setting [5]), with M. tuberculosis (H37Rv) (setting [6]), in the data set with M. tuberculosis (H37Rv) (setting [7]) and with M. tuberculosis (H37Rv) (setting [8]) was greater than 50 µM each time. The solubility kinetic in the data set “physchem [1]” (setting [9]) and in the data set “physchem [1]” (read-out: Kin. Sol) was 171 µM (≈ 68.4 µg/mL) each time. Further, the “Microsomal Cli” value in data set [2] (CD1, mouse) is given as 0.9 mL/min/g. Further, the “Mouse micro Cl” value in data set [2] (mouse, microsomes) is on record as 0.94 mLmin/g. The “Hepatocyte Cli” value in data set [3] (mouse) was 0.8 mL/min/g. In data set [3] (mouse, hepatocytes), the “Mouse Heps Cl” value was determined as 0.78 mLmin/g. This compound also yielded a chromatographic logD in the data set “physchem [4]” of 1.4. In addition, the IC50 in the data set with HepG2 cells (setting [10]) is greater than 100 µM.
`CCOC(=O)c1nc(C(C)C)oc1NC(=O)c1c(F)c(F)c(F)c(F)c1F` [Compound 31, CCOC(=O)c1nc(oc1NC(=O)c1c(c(c(c(c1F)F)F)F)F)C(C)C]: the MIC was 0.1 µM (≈ 0.0392 µg/mL) with M. tuberculosis (H37Rv) (read-out: H37Rv MIC A); 0.6 µM (≈ 0.235 µg/mL) in the data set on M. tuberculosis (H37Rv) (read-out: H37Rv MIC B); 0.1 µM (≈ 0.0392 µg/mL) in the data set with M. tuberculosis (H37Rv) (setting [5]); 0.6 µM (≈ 0.235 µg/mL) with M. tuberculosis (H37Rv) (setting [6]); 0.6 µM (≈ 0.235 µg/mL) with M. tuberculosis (H37Rv) (setting [7]); 0.15 µM (≈ 0.0588 µg/mL) in the data set on M. tuberculosis (H37Rv) (setting [8]). Besides, the solubility kinetic in “physchem [1]” (setting [9]) and in “physchem [1]” (read-out: Kin. Sol) was 195 µM (≈ 76.5 µg/mL) each time. Besides, in data set [2] (CD1, mouse), the “Microsomal Cli” value is 3.3 mL/min/g. For the same compound, the “Mouse micro Cl” value in data set [2] (mouse, microsomes) came out at 3.3 mL/min/g. The “Hepatocyte Cli” value in data set [3] (mouse) is 13 mL/min/g. The “Mouse Heps Cl” value in data set [3] (mouse, hepatocytes) was found to be 13 mL/min/g. Also, the chromatographic logD in the data set “physchem [4]” came out at 2.8. In addition, the IC50 in the data set with HepG2 cells (setting [10]) is greater than 100 µM.
For the compound `CCOC(=O)c1nc(N(C)C)oc1NC(=O)c1c(F)c(F)c(F)c(F)c1F` [Compound 32, CCOC(=O)c1nc(oc1NC(=O)c1c(c(c(c(c1F)F)F)F)F)N(C)C], the MIC in the data set on M. tuberculosis (H37Rv) (read-out: H37Rv MIC A) stood at 0.2 µM (≈ 0.0787 µg/mL); in the data set with M. tuberculosis (H37Rv) (read-out: H37Rv MIC B) it was 0.6 µM (≈ 0.236 µg/mL); in the data set on M. tuberculosis (H37Rv) (setting [5]), 0.2 µM (≈ 0.0787 µg/mL); with M. tuberculosis (H37Rv) (setting [6]), 0.6 µM (≈ 0.236 µg/mL); in the data set on M. tuberculosis (H37Rv) (setting [7]), 1.2 µM (≈ 0.472 µg/mL); in the data set with M. tuberculosis (H37Rv) (setting [8]) it was 0.3 µM (≈ 0.118 µg/mL). Besides, the solubility kinetic in “physchem [1]” (setting [9]) and in “physchem [1]” (read-out: Kin. Sol) was 221 µM (≈ 86.9 µg/mL) throughout. In data set [2] (CD1, mouse), the “Microsomal Cli” value is recorded as 1.4 mL/min/g. Moreover, the “Mouse micro Cl” value in data set [2] (mouse, microsomes) is given as 1.4 mL/min/g. Besides, the “Hepatocyte Cli” value in data set [3] (mouse) is 22 mL/min/g. Further, in data set [3] (mouse, hepatocytes), the “Mouse Heps Cl” value came out at 22 mL/min/g. This compound showed a chromatographic logD in the data set “physchem [4]” of 2.4. For the same compound, in the data set on HepG2 cells (setting [10]), the IC50 was greater than 100 µM.
Consider `CCOC(=O)c1nc(COC)oc1NC(=O)c1c(F)c(F)c(F)c(F)c1F` [Compound 33, CCOC(=O)c1nc(oc1NC(=O)c1c(c(c(c(c1F)F)F)F)F)COC], for which the MIC in the data set with M. tuberculosis (H37Rv) (read-out: H37Rv MIC A) was found to be 1.2 µM (≈ 0.473 µg/mL); with M. tuberculosis (H37Rv) (read-out: H37Rv MIC B) it was 2.3 µM (≈ 0.907 µg/mL); in the data set with M. tuberculosis (H37Rv) (setting [5]), 1.2 µM (≈ 0.473 µg/mL); with M. tuberculosis (H37Rv) (setting [6]) it was 2.3 µM (≈ 0.907 µg/mL); in the data set on M. tuberculosis (H37Rv) (setting [7]), 2.3 µM (≈ 0.907 µg/mL); with M. tuberculosis (H37Rv) (setting [8]), 1.2 µM (≈ 0.473 µg/mL). The solubility kinetic in the data set “physchem [1]” (setting [9]) and in “physchem [1]” (read-out: Kin. Sol) was 227 µM (≈ 89.5 µg/mL) in each case. Besides, the “Microsomal Cli” value in data set [2] (CD1, mouse) was less than 0.5 mL/min/g. Also, the “Mouse micro Cl” value in data set [2] (mouse, microsomes) is reported as less than 0.5 mL/min/g. In data set [3] (mouse), the “Hepatocyte Cli” value was 7.5 mL/min/g. Besides, in data set [3] (mouse, hepatocytes), the “Mouse Heps Cl” value was 7.5 mL/min/g. Also, in “physchem [4]”, the chromatographic logD is 1.6. In the data set on HepG2 cells (setting [10]), the IC50 is greater than 100 µM.

The term chromatographic logD denotes lipophilicity estimated from chromatographic retention. Read a low chromatographic logD as a more hydrophilic compound.
